Source: ChEMBL document CHEMBL3044559, “Synthesis and antidepressant-like action of N-(2-hydroxyethyl) cinnamamide derivatives in mice” (2011)

Tests used:
Mus musculus [1] = assay: Antidepressant like activity in Mus musculus Kunming (mouse) assessed as reduction of immobility time at 40 mg/kg, po measured during last 4 min of 6 min test by forced swimming test (reference value: 183.3 +/- 12.67 sec); format: functional
Mus musculus [2] = assay: Antidepressant like activity in Mus musculus Kunming (mouse) assessed as reduction of immobility time at 40 mg/kg, po measured during last 4 min of 6 min test by tail suspension test (reference value: 105.7 +/- 10.03 sec); format: functional

Structure (SMILES) | Time (Mus musculus [1]) [s] | Time (Mus musculus [2]) [s]
O=C(/C=C/c1cccc(O)c1)NCCO | 102.8 | 54
O=C(/C=C/c1ccc(O)cc1)NCCO | 133.3 | 71
COc1ccccc1/C=C/C(=O)NCCO | 159.1 | 38.67
COc1cccc(/C=C/C(=O)NCCO)c1 | 141 | 43.33
COc1ccc(/C=C/C(=O)NCCO)c(OC)c1 | 143.5 | 39.67
COc1ccc(/C=C/C(=O)NCCO)cc1OC | 157.8 | 39.33
COc1cc(/C=C/C(=O)NCCO)cc(OC)c1OC | 165.5 | 76.33
COc1cc(/C=C/C(=O)NCCO)ccc1O | 55 | 45
O=C(/C=C/c1ccccc1O)NCCO | 146.7 | 44.83
CN(C)c1ccc(/C=C/C(=O)NCCO)cc1 | 105.5 | 64.67
COc1ccc(/C=C/C(=O)NCCO)cc1 | 167.5 | 31.33
O=C(/C=C/c1ccc(Cl)cc1)NCCO | 168 | 76.67
O=C(/C=C/c1ccc(F)cc1)NCCO | 130.8 | 75
O=C(/C=C/c1ccc(Br)cc1)NCCO | 119.7 | 57
CNCCC(Oc1ccc(C(F)(F)F)cc1)c1ccccc1 (stereo unspecified) [FLUOXETINE] | – | 14.17
O=C(/C=C/c1ccccc1)NCCO [IDROCILAMIDE] | 101.2 | 25
